Values quoted from earlier work as cited in US20200147194A1, “PEPTIDE VACCINE AND PEPTIDE VACCINE COMPOSITION FOR CRANIAL NERVE DISEASE” (KEIO UNIVERSITY, priority 2017, published 2020).

Test system: pre-alteration peptides (SEQ ID NO:12)

## SEQ ID NO:16: SEQ ID NO:12 with leucine substituted for the second amino acid from the N-terminus; HLA-A*02:01-binding, VEGFR-2 (VLAMFFWLL; modified peptide)
  CTLs induced by stimulation by the peptide: recognition of pre-alteration peptides (SEQ ID NO:12): able recognize and damage
